Measured values: patent US10787441B2, “Hepatitis C virus inhibitors” (priority 2016, dated 2020)
Read-outs that look alike come from different tables or passages of the source.

How the values were obtained:
Format in all cases: cell-based, Hepatitis C virus
[1] = tested on: HCV genotype 3a NS5A within the 1b-replicon; test: HCV replicon assay, genotype 3a (NS5A intergenotypic stable cell line)
From the text: The nucleotide sequences of the NS5A region of genotype 2a (GenBank Accession # AB047639), genotype 3a (GenBank Accession # D17763), and genotype 4a (GenBank Accession # DQ418788) were synthesized by an outside vendor. The NS5A region of each of these genotypes included the first 11 amino acids of the protease recognition sequence of genotype 1b, as well as the last 10 amino acids of genotype 1b. The NS5A gene cassettes were excised with site specific restriction endonucleases and ligated into a ZS11-luciferase genotype 1b backbone (backbone contains the genotype 1b NS3 protease, NS4a, NS4b, and NS5b coding regions) with similarly cut restriction enzyme sites. Thus, the newly constructed plasmid contains a genotype 2a-, 3a- or 4a-specific NS5A gene within the 1b-replicon.
These new intergenotypic plasmids were used to establish stable cell lines. RNA was generated from the NS5A intergenotypic plasmids and used in conjunction with a lipofectin reagent to transfect a cured Huh7 cell line. Transfected cells were selected for with G418. After selection has occurred the stable cell lines were propagated, tested for luciferase activity, and RT-PCR with genotype specific primers (either 1a, 2a, 3a, or 4a). Stable cell lines containing the intergenotypic replicon were then fully sequenced and analyzed for proper expression of NS3, NS5A and NS5B proteins.
Drug titration analysis was performed using the luciferase replicon assay described herein.
(§1) The HCV luciferase replicon assay measures the ability of a test compound to inhibit HCV replication in cell culture after 3 days of treatment in a human hepatoma cell line (Huh-7) bearing an HCV replicon containing a luciferase-neomycin phosphotransferase fusion gene. The inhibition of HCV replication was measured by quantification of luciferase protein expression. Briefly, Huh-7 cells containing either the HCV genotype 1a H77 strain or genotype 1b Con1 strain subgenomic luciferase replicon (H1a-luc or Zluc, respectively) were grown in DMEM containing glucose, L-glutamine and sodium pyruvate, 10% fetal bovine serum (FBS), 100 IU/mL penicillin, 100 μg/mL streptomycin, 2 mM GlutaMAX, non-essential amino acids and 0.25 (H1a-luc) or 0.5 (Zluc) mg/mL G418. GlutaMAX was obtained from Invitrogen, Corp.; all other media reagents were obtained from Mediatech, Inc. For dose-response testing, the cells were seeded in 96-well plates at 1×10^4 (H1a-luc) or 7.5×10^3 (Zluc) cells/well in a volume of 50 μL, and incubated at 37° C./5% CO2. Three hours after plating, 50 μL of ten 5-fold serial dilutions of compound were added, and cell cultures were incubated at 37° C./5% CO2 for 72 hours. In all cases, Huh-7 cells lacking the HCV replicon served as negative control. To assess luciferase expression, the media/compound was removed from the plates and ONE-glo Luciferase assay reagent (Promega) was added to each well. The assay plates were shaken for 3 minutes at room temperature and luciferase activity for each well was measured with a 1 sec read time on the Victor^3V multilabel counter using a 700 nm cut-off filter (Perkin Elmer). EC50 values were calculated from dose response curves from the resulting best-fit equations determined by Microsoft Excel and XLfit 4.1 software.

HCV 2b = test: HCV replicon assay, genotype 2b; conditions: Hepatitis C virus, read-out: 2b IC50 (nM), HCV genotype 2b
[2] = tested on: HCV genotype 1a H77 strain subgenomic luciferase replicon; test: HCV replicon assay, genotype 1a
Procedure: as §1

[3] = tested on: HCV genotype 1b Con1 strain subgenomic luciferase replicon; test: HCV replicon assay, genotype 1b; conditions: Hepatitis C virus
Procedure: as §1

[4] = tested on: HCV 1aY93H mutant replicon; test: HCV replicon assay, genotype 1a Y93H mutant
Procedure: General procedure: The luciferase replicon transient transfection assay measures the ability of a test compound to inhibit the replication of a transiently-transfected HCV luciferase-bearing wild-type or mutant replicon in cured human hepatoma cells (Huh7.5). The inhibition of HCV replication was measured by quantification of luciferase protein expression. This assay has been validated using a panel of genotype 1a and 1b replicons bearing mutations known to be associated with resistance to BMS-790052. Briefly, subconfluent Huh7.5 cells were electroporated with 10 μg of wild-type or mutant luciferase-bearing HCV replicon RNA. The cells were then seeded in 96-well opaque white plates at 3×10^4 cells/well in 150 μL/well and incubated for 4 hrs at 37° C./5% CO2. Ten 1:5 serial dilutions of each test compound were made in media (DMEM containing glucose, L-glutamine and sodium pyruvate, 10% fetal bovine serum, 100 IU/mL penicillin, 100 μg/mL streptomycin, 2 mM GlutaMAX, and 1×MEM non-essential amino acids (Mediatech, Inc. and Invitrogen Corp.)) at concentrations that were 4× higher than the final concentrations to be tested and 50 μL/well was added to the transfected cells. Untreated, mock-transfected cells served as a negative control of luciferase expression. The plates were incubated at 37° C./5% CO2 for 4 days whereupon the media was removed and 50 μL of ONE-glo luciferase substrate (Promega) was added to each well. The plates were agitated on a rotating platform at room temperature for 3 min and read in a Victor^3V microplate reader (Perkin-Elmer) using a 700 nm cut-off filter with a 1 sec read time. EC50 values were calculated from dose response curves from the resulting best-fit equations determined by Microsoft Excel and XLfit 4.1 software.

[5] = Hepatitis C virus, read-out: 3a IC50 (nM), HCV genotype 3a
[6] = Hepatitis C virus, read-out: 1a IC50 (nM), HCV genotype 1a
[7] = Hepatitis C virus, read-out: 1aY93H IC50 (nM), HCV genotype 1a, Y93H mutant

| SMILES | IC50 [1, 5] | IC50 (HCV 2b) | IC50 [2, 6] | IC50 [3] | IC50 [4, 7] | IC50 ([1]; read-out: 3a IC50, HCV genotype 3a) | IC50 ([2]; read-out: 1a IC50, HCV genotype 1a) | IC50 ([4]; read-out: 1aY93H IC50, HCV genotype 1a, Y93H mutant) |
| --- | --- | --- | --- | --- | --- | --- | --- | --- |
| COC(=O)N[C@H](C(=O)N1CCC[C@H]1c1ncc(-c2ccc3c(ccc4oc5cc(-c6cnc([C@@H]7CCCN7C(=O)[C@@H](NC(=O)OC)C(C)C)[nH]6)ccc5c(=O)c43)c2)[nH]1)C(C)C [Compound 33, methyl [(1S)-1-({(2S)-2-[5-(9-{2-[(2S)-1-{(2S)-2-[(methoxycarbonyl)amino]-3-methylbutanoyl}pyrrolidin-2-yl]-1H-imidazol-5-yl}-12-oxo-12H-benzo[a]xanthen-3-yl)-1H-imidazol-2-yl]pyrrolidin-1-yl}carbonyl)-2-methylpropyl]carbamate] | ≥ 1 nM | 14.1 nM | 0.003 nM | 0.00333 nM | 18.4 nM |  |  |  |
| CCC1(CC)c2ccc(-c3cnc([C@H]4CCCN4C(=O)[C@@H](NC(=O)OC)C4CCOCC4)[nH]3)cc2Oc2ccc3cc(-c4cnc([C@H]5CCCN5C(=O)[C@H](NC(=O)OC)C5CCOCC5)[nH]4)ccc3c21 [Compound 16, methyl [(1R)-2-[(2R)-2-{5-[12,12-diethyl-9-(2-{(2R)-1-[(2S)-2-[(methoxycarbonyl)amino]-2-(tetrahydro-2H-pyran-4-yl)acetyl]pyrrolidin-2-yl}-1H-imidazol-5-yl)-12H-benzo[a]xanthen-3-yl]-1H-imidazol-2-yl}pyrrolidin-1-yl]-2-oxo-1-(tetrahydro-2H-pyran-4-yl)ethyl]carbamate] | 0.015 nM | 0.032 nM | 0.0036 nM | 0.0044 nM | 0.072 nM |  |  |  |
| CCC1c2ccc(-c3cnc([C@@H]4CCCN4C(=O)[C@@H](NC(=O)OC)C4CCOCC4)[nH]3)cc2Oc2ccc3cc(-c4cnc([C@@H]5CCCN5C(=O)[C@@H](NC(=O)OC)C5CCOCC5)[nH]4)ccc3c21 (single isomer, unassigned) [Compound 15] |  | 0.292 nM |  | 0.0036 nM |  | 0.218 nM | 0.0098 nM | 0.826 nM |
| COC(=O)N[C@H](C(=O)N1CCC[C@H]1c1ncc(-c2ccc3c(F)c4oc5ccc(-c6cnc([C@@H]7CCCN7C(=O)[C@@H](NC(=O)OC)C(C)C)[nH]6)cc5c(=O)c4cc3c2)[nH]1)C(C)C [Compound 26, methyl [(1S)-1-({(2S)-2-[5-(6-fluoro-9-{2-[(2S)-1-{(2S)-2-[(methoxycarbonyl)amino]-3-methylbutanoyl}pyrrolidin-2-yl]-1H-imidazol-5-yl}-12-oxo-12H-benzo[b]xanthen-2-yl)-1H-imidazol-2-yl]pyrrolidin-1-yl}carbonyl)-2-methylpropyl]carbamate] | ≥ 1 nM | ≥ 100 nM | ≥ 1 nM | 1 nM | ≥ 100 nM |  |  |  |
| CCC1(CC)c2ccc(-c3cnc([C@@H]4CCCN4C(=O)[C@H](NC(=O)OC)C4CCOCC4)[nH]3)cc2Oc2cc3ccc(-c4cnc([C@@H]5CCCN5C(=O)[C@@H](NC(=O)OC)C5CCOCC5)[nH]4)cc3cc21 [Compound 17, methyl [(1R)-2-[(2S)-2-{5-[12,12-diethyl-9-(2-{(2S)-1-[(2S)-2-[(methoxycarbonyl)amino]-2-(tetrahydro-2H-pyran-4-yl)acetyl]pyrrolidin-2-yl}-1H-imidazol-5-yl)-12H-benzo[b]xanthen-3-yl]-1H-imidazol-2-yl}pyrrolidin-1-yl]-2-oxo-1-(tetrahydro-2H-pyran-4-yl)ethyl]carbamate] | 0.055 nM | 0.028 nM | 0.0034 nM | 0.0305 nM | 0.046 nM |  |  |  |
| COC(=O)N[C@H](C(=O)N1C[C@H](F)C[C@H]1c1ncc(-c2ccc3c(F)c4oc5ccc(-c6cnc([C@@H]7C[C@@H](F)CN7C(=O)[C@@H](NC(=O)OC)C(C)C)[nH]6)cc5c(=O)c4cc3c2)[nH]1)C(C)C [Compound 29, methyl [(1S)-1-({(2S,4R)-4-fluoro-2-[5-(6-fluoro-9-{2-[(2S,4R)-4-fluoro-1-{(2S)-2-[(methoxycarbonyl)amino]-3-methylbutanoyl}pyrrolidin-2-yl]-1H-imidazol-5-yl}-12-oxo-12H-benzo[b]xanthen-2-yl)-1H-imidazol-2-yl]pyrrolidin-1-yl}carbonyl)-2-methylpropyl]carbamate] | ≥ 1 nM | ≥ 100 nM | ≥ 1 nM | 1 nM | ≥ 100 nM |  |  |  |
| COC(=O)N[C@H](C(=O)N1C[C@H](F)C[C@H]1c1ncc(-c2ccc3c(ccc4oc5ccc(-c6cnc([C@@H]7C[C@@H](F)CN7C(=O)[C@@H](NC(=O)OC)C(C)C)[nH]6)cc5c(=O)c43)c2)[nH]1)C(C)C [Compound 27, methyl [(1S)-1-({(2S,4R)-4-fluoro-2-[5-(10-{2-[(2S,4R)-4-fluoro-1-{(2S)-2-[(methoxycarbonyl)amino]-3-methylbutanoyl}pyrrolidin-2-yl]-1H-imidazol-5-yl}-12-oxo-12H-benzo[a]xanthen-3-yl)-1H-imidazol-2-yl]pyrrolidin-1-yl}carbonyl)-2-methylpropyl]carbamate] | ≥ 1 nM | ≥ 100 nM | ≥ 1 nM | 0.591 nM | 96.6 nM |  |  |  |
